Assay results published in patent US9499538B2, “Estrogen receptor modulators and uses thereof” (Seragon Pharmaceuticals, Inc., priority 2012, dated 2016).

Key:
ER-α in MCF-7 cells = target: T1, ER-α in MCF-7 cells (Homo sapiens, UniProt P03372); assay: Breast Cancer Cell ER-α In Cell Western Assay (SP1); format: cell-based; settings: 4 or 24 hr post compound addition; for Emax: MCF7, SP1 antibody, read-out: ER-α In Cell Western Assay (SP1) Max Response; for DC50: SP1 antibody, read-out: ER-α In Cell Western Assay (SP1) IC50
T1 construct: endogenous in cells; host or cells: MCF-7
T1 sequence (P03372 1-595): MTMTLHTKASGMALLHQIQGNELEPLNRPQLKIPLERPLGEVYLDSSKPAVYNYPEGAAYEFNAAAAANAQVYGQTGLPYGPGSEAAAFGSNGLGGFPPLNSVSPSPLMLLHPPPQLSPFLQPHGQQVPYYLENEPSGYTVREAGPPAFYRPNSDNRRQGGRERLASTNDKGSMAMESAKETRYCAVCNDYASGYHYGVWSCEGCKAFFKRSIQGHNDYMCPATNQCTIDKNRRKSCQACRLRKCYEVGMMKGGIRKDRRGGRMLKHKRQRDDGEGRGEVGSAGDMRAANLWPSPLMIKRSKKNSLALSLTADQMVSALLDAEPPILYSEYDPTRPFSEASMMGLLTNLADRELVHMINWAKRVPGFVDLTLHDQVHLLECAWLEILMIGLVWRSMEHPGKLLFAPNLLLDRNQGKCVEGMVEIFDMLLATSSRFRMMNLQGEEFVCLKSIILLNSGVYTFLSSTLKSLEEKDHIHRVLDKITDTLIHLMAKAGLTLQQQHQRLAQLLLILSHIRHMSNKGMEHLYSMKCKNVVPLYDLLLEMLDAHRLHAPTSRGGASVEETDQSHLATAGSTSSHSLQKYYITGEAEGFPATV
Summary of the method: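 ER-α levels quantified by in-cell western: SP1 signal normalised to DRAQ5 DNA stain, relative to untreated cells (% ER). Compounds at 0.3–0.000003 μM final, 11-point semilog series, 4 or 24 h exposure of MCF-7 cells grown in charcoal-stripped serum.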

MCF-7 cells = assay: Breast Cancer Cell Viability Assays (MCF-7, CellTiter-Glo); format: cell-based; settings: 5 days' compound exposure; for IC50: Homo sapiens, MCF7, 120 h
Summary of the method: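 Percent viability, background-subtracted against untreated wells, was taken from CellTiter-Glo luminescence after 5 days' exposure of MCF-7 cells. Compounds were tested at eleven semilog concentrations, final 0.3–0.000003 μM, in RPMI containing 10% FBS.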

Row | Emax (ER-α in MCF-7 cells) [%] | DC50 (ER-α in MCF-7 cells) [nM] | IC50 (MCF-7 cells) [nM] | SMILES | MCF7 Viability Assay Max Response (MCF-7 cells)
1 | ≥ 40 | ≤ 100 | ≤ 100 | O=C(O)/C=C/c1ccc(/C(=C(\c2ccc(CO)cc2Cl)C2CCC2)c2ccc3scnc3c2)cc1 [Example 233, (E)-3-(4-((E)-1-(Benzo[d]thiazol-5-yl)-2-(2-chloro-4-(hydroxymethyl)phenyl)-2-cyclobutylvinyl)phenyl)acrylic acid] | ++ (++ = a single % value ≧ 40%)
2 | ≥ 40 | ≤ 100 | ≤ 100 | O=C(O)/C=C/c1ccc(/C(=C(\c2ccccc2Cl)C2CCC2)c2ccc3scnc3c2)cc1 [Example 234, (E)-3-(4-((E)-1-(Benzo[d]thiazol-5-yl)-2-(2-chlorophenyl)-2-cyclobutylvinyl)phenyl)acrylic acid] | ++ (++ = a single % value ≧ 40%)
3 | ≥ 40 | ≤ 100 | ≤ 100 | O=C(O)/C=C/c1ccc(/C(=C(\c2cccc(F)c2Cl)C2CCC2)c2ccc3scnc3c2)cc1 [Example 235, (E)-3-(4-((E)-1-(Benzo[d]thiazol-5-yl)-2-(2-chloro-3-fluorophenyl)-2-cyclobutylvinyl)phenyl)acrylic acid] | ++ (++ = a single % value ≧ 40%)
4 | ≥ 40 | ≤ 100 | ≤ 100 | O=C(O)/C=C/c1ccc(/C(=C(\c2cc(F)ccc2Cl)C2CCC2)c2ccc3scnc3c2)cc1 [Example 236, (E)-3-(4-((E)-1-(Benzo[d]thiazol-5-yl)-2-(2-chloro-5-fluorophenyl)-2-cyclobutylvinyl)phenyl)acrylic acid] | ++ (++ = a single % value ≧ 40%)
5 | ≥ 40 | ≤ 100 | ≤ 100 | Cc1cc(CO)ccc1/C(=C(\c1ccc(/C=C/C(=O)O)cc1)c1ccc2scnc2c1)C1CCC1 [Example 237, (E)-3-(4-((E)-1-(Benzo[d]thiazol-5-yl)-2-cyclobutyl-2-(4-(hydroxymethyl)-2-methylphenyl)vinyl)phenyl)acrylic acid] | ++ (++ = a single % value ≧ 40%)
6 | ≥ 40 | ≤ 100 | ≤ 100 | Cc1ccccc1/C(=C(\c1ccc(/C=C/C(=O)O)cc1)c1ccc2scnc2c1)C1CCC1 [Example 238, (E)-3-(4-((E)-1-(Benzo[d]thiazol-5-yl)-2-cyclobutyl-2-(o-tolyl)vinyl)phenyl)acrylic acid] | ++ (++ = a single % value ≧ 40%)
7 | ≥ 40 | ≤ 100 | ≤ 100 | Cc1cc(F)ccc1/C(=C(\c1ccc(/C=C/C(=O)O)cc1)c1ccc2scnc2c1)C1CCC1 [Example 239, (E)-3-(4-((E)-1-(Benzo[d]thiazol-5-yl)-2-cyclobutyl-2-(4-fluoro-2-methylphenyl)vinyl)phenyl)acrylic acid] | ++ (++ = a single % value ≧ 40%)
8 | ≥ 40 | ≤ 100 | ≤ 100 | COc1ccc(/C(=C(\c2ccc(/C=C/C(=O)O)cc2)c2ccc3scnc3c2)C2CCC2)c(C)c1 [Example 240, (E)-3-(4-((E)-1-(Benzo[d]thiazol-5-yl)-2-cyclobutyl-2-(4-methoxy-2-methylphenyl)vinyl)phenyl)acrylic acid] | ++ (++ = a single % value ≧ 40%)
9 | ≥ 40 | ≤ 100 | ≤ 100 | O=C(O)/C=C/c1ccc(/C(=C(\c2ccc(OC(F)(F)F)cc2Cl)C2CCC2)c2ccc3scnc3c2)cc1 [Example 241, (E)-3-(4-((E)-1-(Benzo[d]thiazol-5-yl)-2-(2-chloro-4-(trifluoromethoxy)phenyl)-2-cyclobutylvinyl)phenyl)acrylic acid] | ++ (++ = a single % value ≧ 40%)
10 | ≥ 40 | ≤ 100 | ≤ 100 | N#Cc1cc(C(F)(F)F)ccc1/C(=C(\c1ccc(/C=C/C(=O)O)cc1)c1ccc2scnc2c1)C1CCC1 [Example 242, (E)-3-(4-((E)-1-(Benzo[d]thiazol-5-yl)-2-(2-cyano-4-(trifluoromethyl)phenyl)-2-cyclobutylvinyl)phenyl)acrylic acid] | ++ (++ = a single % value ≧ 40%)
11 | ≥ 40 | ≤ 100 | ≤ 100 | N#Cc1cc(C(F)(F)F)ccc1/C(=C(\c1ccc(/C=C/C(=O)O)cc1)c1ccc2[nH]nc(F)c2c1)C1CCC1 [Example 243, (E)-3-(4-((E)-2-(2-Cyano-4-(trifluoromethyl)phenyl)-2-cyclobutyl-1-(3-fluoro-1H-indazol-5-yl)vinyl)phenyl)acrylic acid] | ++ (++ = a single % value ≧ 40%)
12 | ≥ 40 | ≤ 100 | ≤ 100 | O=C(O)/C=C/c1ccc(/C(=C(\c2ncc(C(F)(F)F)cc2Cl)C2CCC2)c2ccc3scnc3c2)cc1 [Example 244, (E)-3-(4-((E)-1-(Benzo[d]thiazol-5-yl)-2-(3-chloro-5-(trifluoromethyl)pyridin-2-yl)-2-cyclobutylvinyl)phenyl)acrylic acid] | ++ (++ = a single % value ≧ 40%)
13 | ≥ 40 | ≤ 100 | ≤ 100 | COc1cc(C)c(/C(=C(\c2ccc(/C=C/C(=O)O)cc2)c2cccc3[nH]nc(F)c23)C2CCC2)cn1 [Example 245, (E)-3-(4-((E)-2-Cyclobutyl-1-(3-fluoro-1H-indazol-4-yl)-2-(6-methoxy-4-methylpyridin-3-yl)vinyl)phenyl)acrylic acid] | ++ (++ = a single % value ≧ 40%)
14 | ≥ 40 | ≤ 100 | ≤ 100 | O=C(O)/C=C/c1ccc(/C(=C(\c2ncccc2Cl)C2CCC2)c2cccc3[nH]nc(F)c23)cc1 [Example 246, (E)-3-(4-((E)-2-(3-Chloropyridin-2-yl)-2-cyclobutyl-1-(3-fluoro-1H-indazol-4-yl)vinyl)phenyl)acrylic acid] | ++ (++ = a single % value ≧ 40%)
15 | ≥ 40 | ≤ 100 | ≤ 100 | N#Cc1cccnc1/C(=C(\c1ccc(/C=C/C(=O)O)cc1)c1ccc2[nH]nc(F)c2c1)C1CCC1 [Example 247, (E)-3-(4-((E)-2-(3-Cyanopyridin-2-yl)-2-cyclobutyl-1-(3-fluoro-1H-indazol-5-yl)vinyl)phenyl)acrylic acid] | ++ (++ = a single % value ≧ 40%)
16 | ≥ 40 | ≤ 100 | ≤ 100 | N#Cc1n[nH]c2ccc(/C(=C(/c3ccc(F)cc3Cl)C3CCC3)c3ccc(/C=C/C(=O)O)cc3)cc12 [Example 248, (E)-3-(4-((E)-2-(2-Chloro-4-fluorophenyl)-1-(3-cyano-1H-indazol-5-yl)-2-cyclobutylvinyl)phenyl)acrylic acid] | ++ (++ = a single % value ≧ 40%)
17 | ≥ 40 | ≤ 100 | ≤ 100 | N#Cc1cc(Cl)cnc1/C(=C(\c1ccc(/C=C/C(=O)O)cc1)c1ccc2[nH]nc(F)c2c1)C1CCC1 [Example 249, (E)-3-(4-((E)-2-(5-Chloro-3 cyanopyridin-2-yl)-2-cyclobutyl-1-(3-fluoro-1H-indazol-5-yl)vinyl)phenyl)acrylic acid] | ++ (++ = a single % value ≧ 40%)
18 | ≥ 40 | ≤ 100 | ≤ 100 | O=C(O)/C=C/c1ccc(/C(=C(\c2ncc(C(F)(F)F)cc2Cl)C2CCC2)c2ccc3[nH]nc(F)c3c2)cc1 [Example 250, (E)-3-(4-((E)-2-(3-Chloro-5-(trifluoromethyl)pyridin-2-yl)-2-cyclobutyl-1-(3-fluoro-1H-indazol-5-yl)vinyl)phenyl)acrylic acid] | ++ (++ = a single % value ≧ 40%)
19 | ≥ 40 | ≤ 100 | ≤ 100 | O=C(O)/C=C/c1ccc(/C(=C(\c2ncc(F)cc2Cl)C2CCC2)c2ccc3[nH]nc(F)c3c2)cc1 [Example 251, (E)-3-(4-((E)-2-(3-Chloro-5-fluoropyridin-2-yl)-2-cyclobutyl-1-(3-fluoro-1H-indazol-5-yl)vinyl)phenyl)acrylic acid] | ++ (++ = a single % value ≧ 40%)
20 | ≥ 40 | ≤ 100 | > 100 | O=C(O)/C=C/c1ccc(/C(=C(\c2ccc(F)cc2Cl)C2CCC2)c2ccc3[nH]nc(C(F)(F)F)c3c2)cc1 [Example 252, (E)-3-(4-((E)-2-(2-Chloro-4-fluorophenyl)-2-cyclobutyl-1-(3-(trifluoromethyl)-1H-indazol-5-yl)vinyl)phenyl)acrylic acid] | ++ (++ = a single % value ≧ 40%)
